Test systems include HOP-18 NSCLC; HOP-62 NSCLC; UACC-62 melanoma; DMS 114 small cell lung; CCRF-CEM leukemia; SNB-78 CNS; MCF7 breast; NCI-H226 lung.
Common to all, as to test: growth of human tumour cells (NCI), 48 h

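Grown in 96-well plates, cells were treated for 48 hours with each compound at five concentrations. Insufficient inhibition: endpoint recorded as highest concentration tested. TGI denotes the concentration required for complete inhibition of growth.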

As to `CC[n+]1c(/C=C/c2ccc(N(CCCl)CCCl)cc2)ccc2cc(NC(=O)/C=C/c3ccccc3)ccc21`, the TGI in the assay on HOP-18 NSCLC was determined as 13 µM; in the assay with HOP-62 NSCLC it was 1.74 µM; in the assay with UACC-62 melanoma, 2.28 µM; with DMS 114 small cell lung it was 13.8 µM; in the assay on CCRF-CEM leukemia, 0.831 µM; with SNB-78 CNS, 16 µM. The TGI was determined as 1.24 µM in the assay with MCF7 breast and 2.89 µM in the assay on NCI-H226 lung.

In the case of `Cc1cccc(NC(=S)Nc2ccccc2Cl)n1`, the TGI is 46.2 µM with HOP-62 NSCLC; more than 100 µM in the assay with UACC-62 melanoma; more than 100 µM in the assay with CCRF-CEM leukemia; more than 100 µM in the assay with MCF7 breast; more than 100 µM in the assay on NCI-H226 lung.

Consider `Cc1ccc2c(n1)C(=O)c1ccccc1C2=O`, for which the TGI in the assay with HOP-62 NSCLC is more than 85.4 µM; in the assay on UACC-62 melanoma, 43.6 µM; in the assay with CCRF-CEM leukemia, more than 100 µM; in the assay on MCF7 breast it was 38.8 µM; in the assay on NCI-H226 lung it was more than 100 µM.

On to `CN(C)c1ccc(/C=C/C=C(/C#N)c2ccccc2)cc1`, for which the TGI was more than 97 µM in the assay on HOP-62 NSCLC; more than 100 µM in the assay with UACC-62 melanoma; more than 77.1 µM with CCRF-CEM leukemia; more than 87.9 µM in the assay with MCF7 breast; more than 100 µM in the assay with NCI-H226 lung.

In the case of `O=c1[nH]nc(Cc2ccccc2)n1Nc1ccccc1`, the TGI with HOP-62 NSCLC, in the assay on UACC-62 melanoma, with CCRF-CEM leukemia, with MCF7 breast and in the assay with NCI-H226 lung was more than 100 µM in each case.

Take `COC(=O)/N=[N+](\[O-])C(c1ccc(OC)cc1)C1CCCCC1` (stereo not drawn): the TGI with HOP-62 NSCLC is 16.9 µM; in the assay on UACC-62 melanoma, 25 µM; in the assay on CCRF-CEM leukemia, 20.6 µM; with MCF7 breast it was more than 100 µM; with NCI-H226 lung, 26.9 µM.

On to `CC1(C)Oc2ccc3c(=O)cc(-c4ccc(F)cc4)oc3c2C1C(=O)O` (stereo not drawn), for which the TGI with HOP-62 NSCLC, in the assay with UACC-62 melanoma, in the assay on CCRF-CEM leukemia, in the assay with MCF7 breast and in the assay with NCI-H226 lung was more than 100 µM throughout.

As to `COCCOCCOC1=C(Cl)C(=O)c2c(O)ccc(O)c2C1=O`, the TGI was determined as 7.3 µM in the assay on HOP-62 NSCLC; 7.85 µM with UACC-62 melanoma; 45.1 µM with CCRF-CEM leukemia; 4.62 µM in the assay with MCF7 breast; 35.4 µM in the assay with NCI-H226 lung.

In the case of `CCOC(=O)CCC(NC(=O)c1ccc(N2CCN(c3c(C)nc(N)nc3N)CC2)cc1)C(=O)OCC` (stereo not drawn), the TGI was more than 100 µM in the assay with HOP-62 NSCLC; more than 100 µM with UACC-62 melanoma; 4.9 µM in the assay with CCRF-CEM leukemia; more than 100 µM in the assay with MCF7 breast; more than 100 µM with NCI-H226 lung.

`CSC1=C(c2ccc(Cl)cc2)SC(N2CCCCC2)N1c1ccc([N+](=O)[O-])cc1` (stereo not drawn): the TGI is 41.8 µM with HOP-62 NSCLC; more than 100 µM with UACC-62 melanoma; more than 100 µM with CCRF-CEM leukemia; more than 100 µM in the assay with MCF7 breast; more than 100 µM in the assay with NCI-H226 lung.

For `C[C@H](O)C1CC(Cn2nnc3c(N)ncnc32)C1(C)C` (stereo partly drawn), the TGI with HOP-62 NSCLC, in the assay on UACC-62 melanoma, in the assay with CCRF-CEM leukemia, in the assay with MCF7 breast and in the assay with NCI-H226 lung was more than 100 µM in each case.

Regarding `COc1cccc(-c2cc(=O)c3c(C)ccnc3[nH]2)c1`, the TGI in the assay with HOP-62 NSCLC was more than 100 µM; with UACC-62 melanoma, more than 100 µM; in the assay on CCRF-CEM leukemia, 0.218 µM; in the assay on MCF7 breast it was more than 100 µM; in the assay on NCI-H226 lung it was 0.0742 µM.

Take `O=C(N/N=C\c1ccc2ccccc2c1)Nc1ccc([N+](=O)[O-])cc1`: the TGI in the assay with HOP-62 NSCLC was 68.1 µM; with UACC-62 melanoma it was more than 74.8 µM; in the assay with CCRF-CEM leukemia, more than 100 µM; with MCF7 breast, more than 100 µM; in the assay with NCI-H226 lung it was more than 100 µM.

For the compound `CCC(CCCC[C@@H]1CC[C@H]2CC(=O)C[C@@H]12)OC` (stereo partly drawn), the TGI with HOP-62 NSCLC, in the assay on UACC-62 melanoma, with CCRF-CEM leukemia, in the assay on MCF7 breast and with NCI-H226 lung was more than 100 µM each time.

On to `Cc1ccc(N=C2C(=O)C3=C(OC(C)(C)CC3)c3ccccc32)cc1`, for which the TGI in the assay on HOP-62 NSCLC was 1.76 µM; in the assay on UACC-62 melanoma it was 2.88 µM; in the assay with CCRF-CEM leukemia, 10.1 µM; in the assay with MCF7 breast, 1.23 µM; in the assay on NCI-H226 lung it was more than 20.4 µM.

Take `COc1cccc(NC(=O)CC(=O)N2N=C(C)C(N=Nc3ccc(S(=O)(=O)c4ccc(N=NC5C(=O)N(C(=O)CC(=O)Nc6cccc(OC)c6)N=C5C)cc4)cc3)C2=O)c1` (stereo not drawn): the TGI in the assay on HOP-62 NSCLC, with UACC-62 melanoma, in the assay with CCRF-CEM leukemia, with MCF7 breast and with NCI-H226 lung was more than 100 µM in each case.

As to `COCc1cc2c(cc1/C=C/[N+](=O)[O-])OCO2`, the TGI was 35.8 µM in the assay on HOP-62 NSCLC; 32 µM with UACC-62 melanoma; 37.7 µM in the assay on CCRF-CEM leukemia; 48.9 µM in the assay on MCF7 breast; 42.9 µM with NCI-H226 lung.

Take `COc1ccc(N=C(Nc2ccc(OC)cc2)C(=Nc2ccc(OC)cc2)Nc2ccc(OC)cc2)cc1`: the TGI with HOP-62 NSCLC, in the assay with UACC-62 melanoma, with CCRF-CEM leukemia, in the assay on MCF7 breast and with NCI-H226 lung was more than 100 µM in each case.

On to `c1ccc(-c2nn(-c3ccccc3)[n+](-c3ccccc3)n2)cc1`, for which the TGI was more than 100 µM with HOP-62 NSCLC; 40.9 µM in the assay on UACC-62 melanoma; more than 39.8 µM with CCRF-CEM leukemia; 25.9 µM in the assay with MCF7 breast; more than 100 µM in the assay on NCI-H226 lung.

For `CNC1=CC(=O)C2=C(C1=O)[C@H]1CC[C@]3(C)C(=O)CC[C@H]3[C@@H]1CC2`, the TGI was 29.8 µM in the assay with HOP-62 NSCLC; 31.9 µM with UACC-62 melanoma; 30.4 µM in the assay on CCRF-CEM leukemia; 47.5 µM in the assay with MCF7 breast; 25.5 µM with NCI-H226 lung.

As for `C(=C\C(SCc1ccccc1)SCc1ccccc1)/c1ccccc1`, the TGI in the assay on HOP-62 NSCLC, in the assay on UACC-62 melanoma, with CCRF-CEM leukemia, with MCF7 breast and in the assay on NCI-H226 lung was more than 10 µM each time.

For `CC(C)=CCC/C(C)=C/CC/C(C)=C/CC/C(C)=C/CC/C(C)=C\CC/C(C)=C/CC/C(C)=C/CC/C(C)=C/Cc1cc(O)ccc1O`, the TGI was 29.5 µM in the assay with HOP-62 NSCLC; 0.857 µM with UACC-62 melanoma; more than 34.9 µM in the assay with CCRF-CEM leukemia; 2.89 µM with MCF7 breast; 4.65 µM in the assay with NCI-H226 lung.

In the case of `CC12Cc3cc4c(cc3C1(c1ccc([N+](=O)[O-])cc1)OCCO2)OCO4` (stereo not drawn), the TGI was 46.5 µM with HOP-62 NSCLC; more than 100 µM in the assay with UACC-62 melanoma; more than 100 µM in the assay with CCRF-CEM leukemia; more than 100 µM in the assay on MCF7 breast; 86.7 µM in the assay on NCI-H226 lung.

In the case of `S=C1N=C(Cl)C2(NN1)c1ccccc1-c1ccccc12`, the TGI in the assay on HOP-62 NSCLC, with UACC-62 melanoma, in the assay on CCRF-CEM leukemia, in the assay with MCF7 breast and with NCI-H226 lung was more than 10 µM in each case.

Take `C=CC[C@H](C)CCC(=O)N1[C@H]2CC3CC[C@@]2(CS1(=O)=O)C3(C)C`: the TGI in the assay with HOP-62 NSCLC was more than 100 µM; in the assay on UACC-62 melanoma, more than 100 µM; in the assay on CCRF-CEM leukemia, 59.2 µM; in the assay with MCF7 breast, more than 100 µM; with NCI-H226 lung it was more than 100 µM.

Turning to `Cc1cccc2c1NC(=S)[C@@H]1CCCN1C2=O`, the TGI with HOP-62 NSCLC, with UACC-62 melanoma, in the assay on CCRF-CEM leukemia, in the assay with MCF7 breast and in the assay on NCI-H226 lung was more than 100 µM each time.

As for `Cc1c(NC(=S)Nc2ccc(Cl)cc2)c(=O)n(-c2ccccc2)n1C`, the TGI with HOP-62 NSCLC, in the assay with UACC-62 melanoma, in the assay on CCRF-CEM leukemia, in the assay on MCF7 breast and with NCI-H226 lung was more than 100 µM throughout.

Consider `Clc1ccc(C2NN=C3c4ccccc4OCC32)cc1` (stereo not drawn), for which the TGI is more than 93.5 µM with HOP-62 NSCLC; more than 47.2 µM with UACC-62 melanoma; more than 74.8 µM in the assay with CCRF-CEM leukemia; more than 45.2 µM in the assay on MCF7 breast; 14.2 µM in the assay with NCI-H226 lung.

Regarding `O=[N+]([O-])c1ccc2nc(/C=C(\O)c3ccc(F)cc3)c(/C=C(\O)c3ccc(F)cc3)nc2c1`, the TGI in the assay on HOP-62 NSCLC was 31.7 µM; in the assay with UACC-62 melanoma, more than 100 µM; in the assay on CCRF-CEM leukemia, 26.4 µM; in the assay with MCF7 breast, more than 100 µM; in the assay on NCI-H226 lung, 89 µM.

In the case of `O=C1CCCCc2cccc(O)c21`, the TGI in the assay with HOP-62 NSCLC, in the assay on UACC-62 melanoma, in the assay on CCRF-CEM leukemia, in the assay with MCF7 breast and with NCI-H226 lung was more than 100 µM in each case.

Source of the values: PubChem BioAssay (NCI).
